Test results as given in publication PMC6199744, “Development of Chemical Proteomics for the Folateome and Analysis of the Kinetoplastid Folateome” (ACS Infectious Diseases, 2018).
Like-named read-outs stand apart in the source and are kept apart here.

Columns and labels:
Assay type in all cases: binding
[1] = biological target: T1, HeLa cell extract proteins (Homo sapiens, UniProt O00505)
T1 construct: endogenous in cells; host or cells: HeLa cell extract
T1 sequence (O00505 1-521): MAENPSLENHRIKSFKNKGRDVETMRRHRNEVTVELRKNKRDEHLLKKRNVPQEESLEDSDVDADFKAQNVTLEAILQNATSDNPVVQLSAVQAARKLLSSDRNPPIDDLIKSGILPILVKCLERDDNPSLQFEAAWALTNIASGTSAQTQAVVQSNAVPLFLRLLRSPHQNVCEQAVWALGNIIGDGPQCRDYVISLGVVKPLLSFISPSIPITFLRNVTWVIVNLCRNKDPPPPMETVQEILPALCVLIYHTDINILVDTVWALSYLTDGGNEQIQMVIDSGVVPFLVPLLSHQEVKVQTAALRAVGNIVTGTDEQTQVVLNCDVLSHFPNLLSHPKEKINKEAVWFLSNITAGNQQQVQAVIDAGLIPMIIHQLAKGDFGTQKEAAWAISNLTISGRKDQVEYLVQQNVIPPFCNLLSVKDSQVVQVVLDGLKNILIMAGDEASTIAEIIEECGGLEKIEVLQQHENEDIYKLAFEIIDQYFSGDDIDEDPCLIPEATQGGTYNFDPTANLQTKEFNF

[2] = biological target: T2, HeLa cell extract proteins (Homo sapiens, UniProt O75718)
T2 construct: endogenous in cells; host or cells: HeLa cell extract
T2 sequence (O75718 27-401): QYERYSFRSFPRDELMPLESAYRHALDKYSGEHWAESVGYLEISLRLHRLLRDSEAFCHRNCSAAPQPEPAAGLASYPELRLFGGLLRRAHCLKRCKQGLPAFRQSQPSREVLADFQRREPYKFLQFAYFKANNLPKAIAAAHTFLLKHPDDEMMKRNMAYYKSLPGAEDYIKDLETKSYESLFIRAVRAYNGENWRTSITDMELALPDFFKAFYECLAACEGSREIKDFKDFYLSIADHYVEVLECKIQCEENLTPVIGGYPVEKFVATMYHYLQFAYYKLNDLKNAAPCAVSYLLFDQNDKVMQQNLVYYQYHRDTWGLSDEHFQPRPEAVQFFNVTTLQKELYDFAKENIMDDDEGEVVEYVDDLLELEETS

[3] = biological target: T3, HeLa cell extract proteins (Homo sapiens, UniProt P04279)
T3 construct: endogenous in cells; host or cells: HeLa cell extract
T3 sequence (P04279 24-462): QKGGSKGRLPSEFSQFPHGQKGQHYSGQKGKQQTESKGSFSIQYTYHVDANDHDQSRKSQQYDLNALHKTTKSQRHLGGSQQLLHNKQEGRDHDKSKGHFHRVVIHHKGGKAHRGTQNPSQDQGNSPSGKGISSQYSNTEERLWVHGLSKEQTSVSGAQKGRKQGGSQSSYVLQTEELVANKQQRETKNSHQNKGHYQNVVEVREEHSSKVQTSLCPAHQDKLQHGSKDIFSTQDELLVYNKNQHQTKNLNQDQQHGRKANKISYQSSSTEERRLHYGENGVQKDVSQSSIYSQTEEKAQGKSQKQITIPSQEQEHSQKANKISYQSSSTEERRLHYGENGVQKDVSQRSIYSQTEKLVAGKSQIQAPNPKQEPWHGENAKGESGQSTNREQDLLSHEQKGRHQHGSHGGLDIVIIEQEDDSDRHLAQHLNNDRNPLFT

[4] = biological target: T4, HeLa cell extract proteins (Homo sapiens, UniProt P40938)
T4 construct: endogenous in cells; host or cells: HeLa cell extract

[5] = biological target: T5, HeLa cell extract proteins (Homo sapiens, UniProt P69905)
T5 construct: endogenous in cells; host or cells: HeLa cell extract

[6] = biological target: T6, HeLa cell extract proteins (Homo sapiens, UniProt Q93008)
T6 construct: endogenous in cells; host or cells: HeLa cell extract

[7] = biological target: T7, HeLa cell extract proteins (Homo sapiens, UniProt Q9UPU5)
T7 construct: endogenous in cells; host or cells: HeLa cell extract

[8] = biological target: T8, HeLa cell extract proteins (Homo sapiens, UniProt P14866); conditions: protein HNRNPL; HeLa
T8 construct: endogenous in cells; host or cells: HeLa cell extract
T8 sequence (P14866 1-589): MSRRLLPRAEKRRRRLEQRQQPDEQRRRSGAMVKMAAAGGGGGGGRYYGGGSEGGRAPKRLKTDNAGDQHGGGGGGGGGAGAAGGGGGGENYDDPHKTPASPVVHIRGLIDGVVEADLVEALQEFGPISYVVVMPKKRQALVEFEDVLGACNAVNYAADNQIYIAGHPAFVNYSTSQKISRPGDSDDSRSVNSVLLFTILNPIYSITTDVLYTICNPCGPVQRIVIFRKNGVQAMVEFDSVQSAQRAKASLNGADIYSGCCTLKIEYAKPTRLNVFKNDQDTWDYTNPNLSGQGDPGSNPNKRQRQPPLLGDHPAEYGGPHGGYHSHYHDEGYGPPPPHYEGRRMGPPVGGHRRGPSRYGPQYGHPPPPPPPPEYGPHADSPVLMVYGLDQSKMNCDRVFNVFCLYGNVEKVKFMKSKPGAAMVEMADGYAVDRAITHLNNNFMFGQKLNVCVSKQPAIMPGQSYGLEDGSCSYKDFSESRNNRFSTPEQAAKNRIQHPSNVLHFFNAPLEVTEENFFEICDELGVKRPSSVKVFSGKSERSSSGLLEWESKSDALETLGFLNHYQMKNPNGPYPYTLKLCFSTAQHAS

[9] = biological target: T9, HeLa cell extract proteins (Homo sapiens, UniProt Q9BSJ2); conditions: captured protein TUBGCP2; HeLa
T9 construct: endogenous in cells; host or cells: HeLa cell extract

[10] = biological target: T10, HeLa cell extract proteins (Homo sapiens, UniProt Q9BVK8); conditions: HeLa; protein TMEM147
T10 construct: endogenous in cells; host or cells: HeLa cell extract
T10 sequence (Q9BVK8 1-224): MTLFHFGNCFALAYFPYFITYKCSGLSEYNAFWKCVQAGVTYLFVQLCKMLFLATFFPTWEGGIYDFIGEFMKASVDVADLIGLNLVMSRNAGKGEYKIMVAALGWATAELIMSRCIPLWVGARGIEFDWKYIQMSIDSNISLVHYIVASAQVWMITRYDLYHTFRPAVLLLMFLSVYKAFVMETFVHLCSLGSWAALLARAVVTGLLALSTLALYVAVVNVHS

[11] = HeLa, protein HBA1 (HEMOGLOBIN SUBUNIT ALPHA)

T5 sequence (P69905 whole entry): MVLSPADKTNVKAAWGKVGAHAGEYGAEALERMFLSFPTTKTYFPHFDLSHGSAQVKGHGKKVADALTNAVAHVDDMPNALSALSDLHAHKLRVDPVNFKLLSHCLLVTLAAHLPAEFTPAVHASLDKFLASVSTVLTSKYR
T6 sequence (Q93008 whole entry): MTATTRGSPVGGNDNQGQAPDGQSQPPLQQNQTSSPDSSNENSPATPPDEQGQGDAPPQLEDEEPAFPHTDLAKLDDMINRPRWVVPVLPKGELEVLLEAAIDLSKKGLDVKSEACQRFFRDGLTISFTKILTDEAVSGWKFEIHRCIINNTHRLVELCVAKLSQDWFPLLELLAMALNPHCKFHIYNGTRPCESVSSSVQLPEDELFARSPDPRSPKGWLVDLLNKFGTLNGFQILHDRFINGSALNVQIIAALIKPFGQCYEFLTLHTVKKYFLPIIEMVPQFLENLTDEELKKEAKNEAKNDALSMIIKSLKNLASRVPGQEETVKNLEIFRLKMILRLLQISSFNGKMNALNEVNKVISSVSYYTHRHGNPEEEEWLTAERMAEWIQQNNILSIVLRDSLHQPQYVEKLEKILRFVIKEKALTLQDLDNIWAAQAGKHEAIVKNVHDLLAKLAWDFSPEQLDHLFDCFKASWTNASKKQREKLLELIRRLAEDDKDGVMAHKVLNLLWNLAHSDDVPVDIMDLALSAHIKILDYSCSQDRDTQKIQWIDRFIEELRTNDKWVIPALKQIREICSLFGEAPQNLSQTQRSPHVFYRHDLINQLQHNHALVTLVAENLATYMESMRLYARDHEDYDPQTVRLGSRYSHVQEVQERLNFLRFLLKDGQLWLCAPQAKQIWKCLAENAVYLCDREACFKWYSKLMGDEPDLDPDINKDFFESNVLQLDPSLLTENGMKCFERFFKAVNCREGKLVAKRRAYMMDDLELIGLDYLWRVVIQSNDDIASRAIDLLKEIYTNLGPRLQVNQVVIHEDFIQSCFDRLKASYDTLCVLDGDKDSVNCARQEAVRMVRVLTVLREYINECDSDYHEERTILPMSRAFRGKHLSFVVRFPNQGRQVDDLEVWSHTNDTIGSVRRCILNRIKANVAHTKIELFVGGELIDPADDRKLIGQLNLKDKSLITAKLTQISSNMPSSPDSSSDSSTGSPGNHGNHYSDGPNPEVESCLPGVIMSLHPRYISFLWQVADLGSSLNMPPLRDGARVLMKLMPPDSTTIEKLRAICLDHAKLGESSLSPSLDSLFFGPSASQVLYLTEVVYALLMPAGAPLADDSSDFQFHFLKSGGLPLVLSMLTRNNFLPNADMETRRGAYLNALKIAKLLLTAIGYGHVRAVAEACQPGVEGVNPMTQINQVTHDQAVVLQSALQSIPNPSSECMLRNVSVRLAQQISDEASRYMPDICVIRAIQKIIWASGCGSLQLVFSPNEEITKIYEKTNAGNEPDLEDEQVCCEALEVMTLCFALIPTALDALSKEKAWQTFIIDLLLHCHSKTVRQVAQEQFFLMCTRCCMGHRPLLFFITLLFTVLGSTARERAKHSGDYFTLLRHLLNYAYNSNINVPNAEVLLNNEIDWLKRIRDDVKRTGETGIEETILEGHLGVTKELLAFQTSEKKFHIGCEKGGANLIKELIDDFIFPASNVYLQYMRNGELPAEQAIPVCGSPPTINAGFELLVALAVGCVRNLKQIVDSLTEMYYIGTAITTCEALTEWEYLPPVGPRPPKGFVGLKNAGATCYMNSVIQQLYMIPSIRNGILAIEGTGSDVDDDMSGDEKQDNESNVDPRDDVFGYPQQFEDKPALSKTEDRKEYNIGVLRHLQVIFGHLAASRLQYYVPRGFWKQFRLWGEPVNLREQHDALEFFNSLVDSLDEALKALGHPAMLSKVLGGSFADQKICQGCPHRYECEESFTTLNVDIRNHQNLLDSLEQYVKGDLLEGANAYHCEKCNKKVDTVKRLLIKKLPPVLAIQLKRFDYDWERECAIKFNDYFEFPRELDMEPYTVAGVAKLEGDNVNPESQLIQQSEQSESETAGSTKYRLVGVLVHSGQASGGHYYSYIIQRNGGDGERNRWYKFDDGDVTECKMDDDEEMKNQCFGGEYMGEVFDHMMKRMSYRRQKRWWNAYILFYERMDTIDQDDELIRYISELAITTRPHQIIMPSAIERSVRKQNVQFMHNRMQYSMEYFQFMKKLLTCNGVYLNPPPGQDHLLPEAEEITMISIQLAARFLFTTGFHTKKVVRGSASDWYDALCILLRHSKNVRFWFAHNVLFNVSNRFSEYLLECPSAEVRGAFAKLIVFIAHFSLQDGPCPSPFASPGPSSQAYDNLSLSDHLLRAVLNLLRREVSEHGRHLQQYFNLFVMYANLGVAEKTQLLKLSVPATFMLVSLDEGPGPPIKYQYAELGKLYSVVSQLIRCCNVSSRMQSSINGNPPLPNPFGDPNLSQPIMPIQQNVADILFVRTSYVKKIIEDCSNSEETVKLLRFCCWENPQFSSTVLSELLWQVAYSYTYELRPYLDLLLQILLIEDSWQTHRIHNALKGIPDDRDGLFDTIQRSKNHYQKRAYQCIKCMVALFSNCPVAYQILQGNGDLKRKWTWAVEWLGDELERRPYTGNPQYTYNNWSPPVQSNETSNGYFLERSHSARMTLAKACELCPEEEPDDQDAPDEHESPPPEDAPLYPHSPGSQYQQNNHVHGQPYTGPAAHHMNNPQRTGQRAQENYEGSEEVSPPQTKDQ
T4 sequence (P40938 whole entry): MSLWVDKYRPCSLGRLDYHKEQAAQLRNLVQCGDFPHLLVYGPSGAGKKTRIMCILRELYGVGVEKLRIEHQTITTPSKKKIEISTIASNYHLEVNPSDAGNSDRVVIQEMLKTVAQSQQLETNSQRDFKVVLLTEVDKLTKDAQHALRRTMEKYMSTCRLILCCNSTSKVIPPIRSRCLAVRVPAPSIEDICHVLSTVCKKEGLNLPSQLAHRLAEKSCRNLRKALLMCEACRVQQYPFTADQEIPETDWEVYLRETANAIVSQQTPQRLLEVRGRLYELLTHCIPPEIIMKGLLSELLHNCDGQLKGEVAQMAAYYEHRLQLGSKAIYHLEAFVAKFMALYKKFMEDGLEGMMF
T9 sequence (Q9BSJ2 whole entry): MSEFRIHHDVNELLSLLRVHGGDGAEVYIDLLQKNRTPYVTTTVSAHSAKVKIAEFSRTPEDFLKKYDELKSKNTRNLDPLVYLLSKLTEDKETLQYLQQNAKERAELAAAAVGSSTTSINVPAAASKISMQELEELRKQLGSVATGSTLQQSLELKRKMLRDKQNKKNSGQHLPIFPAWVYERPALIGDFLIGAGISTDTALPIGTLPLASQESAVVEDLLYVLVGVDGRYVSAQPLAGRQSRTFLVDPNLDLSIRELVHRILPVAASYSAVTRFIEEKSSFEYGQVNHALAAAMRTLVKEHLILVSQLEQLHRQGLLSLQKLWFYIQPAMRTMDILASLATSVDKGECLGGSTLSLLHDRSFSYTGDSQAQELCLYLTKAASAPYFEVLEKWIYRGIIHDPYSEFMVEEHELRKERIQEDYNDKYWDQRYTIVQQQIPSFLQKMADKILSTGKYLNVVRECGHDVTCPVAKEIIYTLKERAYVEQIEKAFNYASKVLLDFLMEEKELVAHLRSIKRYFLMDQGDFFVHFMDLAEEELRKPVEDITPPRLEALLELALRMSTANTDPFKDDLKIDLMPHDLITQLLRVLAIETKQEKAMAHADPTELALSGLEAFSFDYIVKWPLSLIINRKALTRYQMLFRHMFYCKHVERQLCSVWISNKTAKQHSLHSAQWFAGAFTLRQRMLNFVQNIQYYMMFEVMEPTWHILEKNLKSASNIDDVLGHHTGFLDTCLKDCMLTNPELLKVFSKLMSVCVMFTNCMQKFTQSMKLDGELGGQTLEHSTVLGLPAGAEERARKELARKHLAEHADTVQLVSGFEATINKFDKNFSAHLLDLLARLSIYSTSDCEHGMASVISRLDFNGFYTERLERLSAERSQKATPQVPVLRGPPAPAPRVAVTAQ

Row | Structure (SMILES) | fold changes relative to vehicle control ([1]; HeLa, captured protein KPNA3) | fold changes relative to vehicle control ([2]; protein CRTAP, HeLa) | fold changes relative to vehicle control ([3]; protein SEMG1, HeLa) | fold changes relative to vehicle control ([4]; HeLa, protein RFC3) | fold changes relative to vehicle control [5, 11] | fold changes relative to vehicle control ([6]; HeLa, captured protein USP9X) | fold changes relative to vehicle control ([7]; protein USP24, HeLa) | fold changes relative to vehicle control [8] | fold changes relative to vehicle control [9] | fold changes relative to vehicle control [10] | other results
1 | Nc1nc2c(c(=O)[nH]1)N(C=O)C(CNc1ccc(C(=O)N[C@@H](CCC(=O)O)C(=O)O)cc1)CN2 (stereo partly shown) [LEU, leucovorin] | 0.9 | 0.85 | 0.13 | 0.99 | 1.29 | 1.13 | 0.85 | – | – | – | –
2 | Nc1nc2[nH]cc(CCc3ccc(C(=O)N[C@@H](CCC(=O)O)C(=O)O)cc3)c2c(=O)[nH]1 [PTX, pemetrexed] | – | – | – | – | – | – | – | – | – | – | fold changes relative to vehicle control [1]: 0.9; fold changes relative to vehicle control [2]: 0.82; fold changes relative to vehicle control [3]: 0.14; fold changes relative to vehicle control [4]: 1.01; fold changes relative to vehicle control [5]: 0.97; fold changes relative to vehicle control [6]: 1.17; fold changes relative to vehicle control [7]: 0.89
3 | CCCCCCOc1ccc(Cc2cnc(N)nc2N)cc1 [compound 1] | – | – | – | – | – | – | – | 1 | 0.76 | 0.72 | –
4 | CCCCCCOc1cccc(Cc2cnc(N)nc2N)c1 [compound 2] | – | – | – | – | – | – | – | 1.02 | 1.01 | 0.97 | –
5 | Nc1nc2cccc(-c3ccccc3)c2n1Cc1ccc(Cl)c(Cl)c1 [compound 3] | – | – | – | – | – | – | – | 0.88 | 0.99 | 0.96 | –
6 | NCCOCCOCC(=O)Nc1nc2ncc(CNc3ccc(C(=O)NC(CCC(=O)O)C(=O)O)cc3)nc2c(=O)[nH]1 (stereo not shown) [compound 6] | 1.02 | 0.86 | 0.16 | 1.14 | 1.05 | 1.31 | 1.01 | – | – | – | –
7 | NCCCNc1ccc(C(=O)NC(CCC(=O)O)C(=O)O)cc1 (stereo not shown) [compound 7] | 0.87 | 0.91 | 0.09 | 1.16 | 0.76 | 1.26 | 0.84 | – | – | – | –
